Measurements taken from ChEMBL document CHEMBL1143297, “Synthesis and CHK1 inhibitory potency of Hymenialdisine analogues” (Bioorg Med Chem Lett, 2009).
The source made the active and inactive calls. The calls are words filed in the database; no cut-off is given here.

Experiments:
[1] = molecular target: T1, Serine/threonine-protein kinase Chk1 (Homo sapiens, UniProt O14757); test: Inhibition of CHK1
T1 sequence (O14757 whole entry): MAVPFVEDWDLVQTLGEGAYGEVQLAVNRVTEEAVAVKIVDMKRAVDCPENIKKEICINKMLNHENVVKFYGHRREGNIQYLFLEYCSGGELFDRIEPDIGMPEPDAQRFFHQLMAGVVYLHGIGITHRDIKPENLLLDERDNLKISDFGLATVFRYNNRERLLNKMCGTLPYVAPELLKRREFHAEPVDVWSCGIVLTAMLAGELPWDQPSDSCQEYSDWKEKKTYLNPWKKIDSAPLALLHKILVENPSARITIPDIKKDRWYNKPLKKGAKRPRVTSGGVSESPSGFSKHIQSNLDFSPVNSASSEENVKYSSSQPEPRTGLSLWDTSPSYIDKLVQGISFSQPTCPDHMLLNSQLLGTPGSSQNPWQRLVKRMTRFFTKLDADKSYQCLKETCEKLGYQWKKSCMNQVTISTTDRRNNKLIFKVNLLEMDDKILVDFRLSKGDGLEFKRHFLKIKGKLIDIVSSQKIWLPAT

[2] = molecular target: Glycogen synthase kinase-3 beta (Homo sapiens) (UniProt P49841); test: Inhibition of GSK3-beta
Chain of Glycogen synthase kinase-3 beta (Homo sapiens) (P49841 whole entry, looked up): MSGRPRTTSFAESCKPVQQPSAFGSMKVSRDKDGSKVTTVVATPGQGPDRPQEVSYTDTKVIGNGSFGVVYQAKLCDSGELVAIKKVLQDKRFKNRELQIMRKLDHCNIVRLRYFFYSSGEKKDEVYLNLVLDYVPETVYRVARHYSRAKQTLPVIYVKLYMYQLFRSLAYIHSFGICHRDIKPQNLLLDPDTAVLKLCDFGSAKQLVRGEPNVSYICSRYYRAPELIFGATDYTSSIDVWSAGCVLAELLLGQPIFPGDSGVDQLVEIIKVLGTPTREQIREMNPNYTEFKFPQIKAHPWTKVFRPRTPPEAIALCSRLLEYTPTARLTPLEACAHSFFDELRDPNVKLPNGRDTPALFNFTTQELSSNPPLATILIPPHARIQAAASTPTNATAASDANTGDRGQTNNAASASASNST

[3] = molecular target: T2, NUAK family SNF1-like kinase 1 (Homo sapiens) (UniProt O60285); test: Inhibition of ARK5
T2 sequence (whole entry): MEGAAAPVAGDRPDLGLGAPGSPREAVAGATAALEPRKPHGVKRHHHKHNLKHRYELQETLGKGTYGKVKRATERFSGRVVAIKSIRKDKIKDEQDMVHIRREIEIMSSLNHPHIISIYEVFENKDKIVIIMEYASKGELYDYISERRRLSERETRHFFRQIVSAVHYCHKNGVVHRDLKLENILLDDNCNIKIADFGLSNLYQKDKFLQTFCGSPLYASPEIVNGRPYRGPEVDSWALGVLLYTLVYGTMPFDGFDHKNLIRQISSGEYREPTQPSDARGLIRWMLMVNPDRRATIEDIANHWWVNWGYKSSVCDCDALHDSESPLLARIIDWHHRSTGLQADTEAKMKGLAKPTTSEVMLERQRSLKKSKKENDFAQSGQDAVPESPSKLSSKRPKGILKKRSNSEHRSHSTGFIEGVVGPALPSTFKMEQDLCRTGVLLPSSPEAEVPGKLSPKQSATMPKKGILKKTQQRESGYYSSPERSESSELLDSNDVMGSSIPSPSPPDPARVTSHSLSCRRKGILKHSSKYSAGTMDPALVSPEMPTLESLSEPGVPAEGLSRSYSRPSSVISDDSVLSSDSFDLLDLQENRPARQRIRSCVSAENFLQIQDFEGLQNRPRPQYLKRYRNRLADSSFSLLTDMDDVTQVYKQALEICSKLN

[4] = molecular target: Serine/threonine-protein kinase SIK1 (Homo sapiens) (UniProt P57059); test: Inhibition of SIK
Chain of Serine/threonine-protein kinase SIK1 (Homo sapiens) (P57059 whole entry): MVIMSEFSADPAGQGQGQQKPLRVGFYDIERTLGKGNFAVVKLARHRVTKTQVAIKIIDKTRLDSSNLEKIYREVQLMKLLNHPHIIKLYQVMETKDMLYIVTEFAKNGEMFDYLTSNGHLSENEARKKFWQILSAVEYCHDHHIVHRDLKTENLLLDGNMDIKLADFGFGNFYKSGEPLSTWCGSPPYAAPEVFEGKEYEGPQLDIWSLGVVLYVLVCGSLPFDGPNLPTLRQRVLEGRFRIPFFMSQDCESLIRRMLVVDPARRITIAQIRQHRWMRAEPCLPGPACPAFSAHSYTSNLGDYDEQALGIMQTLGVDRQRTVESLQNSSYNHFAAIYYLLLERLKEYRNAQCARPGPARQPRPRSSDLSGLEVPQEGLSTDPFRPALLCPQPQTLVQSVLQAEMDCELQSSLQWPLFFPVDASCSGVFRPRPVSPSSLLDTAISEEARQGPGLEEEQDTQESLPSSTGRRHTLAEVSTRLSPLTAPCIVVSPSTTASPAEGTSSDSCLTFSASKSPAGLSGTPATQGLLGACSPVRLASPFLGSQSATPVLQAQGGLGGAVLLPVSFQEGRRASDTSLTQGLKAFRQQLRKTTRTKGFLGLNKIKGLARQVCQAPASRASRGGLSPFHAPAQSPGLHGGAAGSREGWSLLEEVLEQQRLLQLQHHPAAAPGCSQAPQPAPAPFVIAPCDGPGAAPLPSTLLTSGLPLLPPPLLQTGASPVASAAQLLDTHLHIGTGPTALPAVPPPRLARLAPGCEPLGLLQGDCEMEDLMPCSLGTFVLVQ

[5] = molecular target: Receptor-type tyrosine-protein kinase FLT3 (Homo sapiens) (UniProt P36888); test: Inhibition of FLT3
Chain of Receptor-type tyrosine-protein kinase FLT3 (Homo sapiens) (P36888 whole entry): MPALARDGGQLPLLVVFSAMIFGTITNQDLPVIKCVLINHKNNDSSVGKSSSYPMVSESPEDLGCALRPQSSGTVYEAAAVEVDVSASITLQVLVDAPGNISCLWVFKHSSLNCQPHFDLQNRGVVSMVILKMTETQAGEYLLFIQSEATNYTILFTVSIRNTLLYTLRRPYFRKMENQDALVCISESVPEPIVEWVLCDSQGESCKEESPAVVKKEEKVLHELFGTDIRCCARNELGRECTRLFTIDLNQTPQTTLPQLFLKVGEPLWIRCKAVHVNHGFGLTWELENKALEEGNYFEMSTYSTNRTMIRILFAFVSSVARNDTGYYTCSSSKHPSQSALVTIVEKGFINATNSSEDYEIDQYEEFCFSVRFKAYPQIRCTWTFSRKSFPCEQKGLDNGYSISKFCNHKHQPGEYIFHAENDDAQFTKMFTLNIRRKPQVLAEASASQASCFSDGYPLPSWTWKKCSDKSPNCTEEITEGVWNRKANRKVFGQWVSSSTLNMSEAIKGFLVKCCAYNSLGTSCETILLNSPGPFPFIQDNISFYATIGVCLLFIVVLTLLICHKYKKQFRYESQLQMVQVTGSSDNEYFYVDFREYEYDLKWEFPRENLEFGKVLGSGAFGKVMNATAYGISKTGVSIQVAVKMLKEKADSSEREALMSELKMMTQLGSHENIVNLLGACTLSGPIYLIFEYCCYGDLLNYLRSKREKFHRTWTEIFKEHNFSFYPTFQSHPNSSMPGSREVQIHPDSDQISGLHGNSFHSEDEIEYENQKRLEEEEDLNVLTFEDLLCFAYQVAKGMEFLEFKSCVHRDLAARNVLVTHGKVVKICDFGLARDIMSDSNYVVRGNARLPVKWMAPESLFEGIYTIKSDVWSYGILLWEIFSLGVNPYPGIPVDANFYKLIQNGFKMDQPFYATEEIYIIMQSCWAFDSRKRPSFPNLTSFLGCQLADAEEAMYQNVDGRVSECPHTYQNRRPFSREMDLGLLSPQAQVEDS

SMILES	IC50 [1] [nM]	further results
NC1=NC(=O)/C(=C2\CCNC(=O)c3[nH]c4c(-c5ccccc5)csc4c32)N1	1300	
NC1=NC(=O)/C(=C2\CCNC(=O)c3[nH]c4cc(Br)sc4c32)N1	460	
Nc1nc(C2=C3C(=Nc4ccccc43)C(=O)NCC2)c(O)[nH]1	470	
O=C1N=C(NCCO)N/C1=C1/CCNC(=O)c2[nH]c3ccsc3c21	1700	
NC1=NC(=O)/C(=C2\CCNC(=O)c3[nH]c(Br)cc32)N1 [HYMENIALDISINE]	1900	
NC1=NC(=O)/C(=C2\CCNC(=O)c3[nH]c4c(-c5ccccc5)csc4c32)S1	> 10000	
COc1ccc(Cn2c3c(c4scc(Br)c42)/C(=C2\NC(N)=NC2=O)CCNC3=O)cc1	> 10000	
NC1=NC(=O)/C(=C2\CCNC(=O)c3[nH]c4c(sc5ccccc54)c32)S1	> 10000	
Cn1c2c(c3sccc31)/C(=C1\NC(N)=NC1=O)CCNC2=O	> 10000	
NC1=NC(=O)/C(=C2\CCNC(=O)c3[nH]c4c(Cl)c(Cl)sc4c32)N1	890	

Stronger by IC50 [1], values ahead:

IC50 [1] [nM]	SMILES	further results
300	NC1=NC(=O)/C(=C2\CCNC(=O)c3[nH]c4cc(Cl)sc4c32)N1	
230	NC1=NC(=O)/C(=C2\CCNC(=O)c3[nH]c4c(sc5ccccc54)c32)N1	
280	O=C1N=C(NCCO)N/C1=C1/CCNC(=O)c2[nH]c3c(Br)csc3c21	
260	O=C(O)CNC1=NC(=O)/C(=C2\CCNC(=O)c3[nH]c4c(Br)csc4c32)N1	
150	NC(=O)c1csc2c3c([nH]c12)C(=O)NCC/C3=C1/NC(N)=NC1=O	
180	NC1=NC(=O)/C(=C2\CCNC(=O)c3[nH]c4ccsc4c32)S1	
190	NC1=NC(=O)/C(=C2\CCNC(=O)c3[nH]c4c(Br)csc4c32)S1	
100	NC1=NC(=O)/C(=C2\CCNC(=O)c3[nH]c(Br)c(Br)c32)N1	
330	NC1=N/C(=C2/CCNC(=O)c3[nH]ccc32)C(=O)N1 [DEBROMOHYMENIALDISINE]	
150	NC1=NC(=O)/C(=C2\CCNC(=O)c3[nH]c4ccsc4c32)N1	
29	N#Cc1csc2c3c([nH]c12)C(=O)NCC/C3=C1/NC(N)=NC1=O	
14	NC1=NC(=O)/C(=C2\CCNC(=O)c3[nH]c4c(Br)csc4c32)N1	Activity [2]: Active; Activity [3]: Active; Activity [4]: Active; Activity [5]: Active
140	NC1=NC(=O)/C(=C2\CCNC(=O)c3[nH]c4c(Cl)csc4c32)N1	
